# Data reported in publication PMC5895880 (Frontiers in Pharmacology, 2018).
# Key:
# mGluR5 [1] = test system: mGluR5; set-up: method as in Nickols et al., 2016; conditions: ref Nickols et al., 2016; cited from earlier work
# mGluR5 [2] = test system: mGluR5; set-up: method as in Nickols et al., 2016; conditions: ref Nickols et al., 2016; cited from earlier work; remark: listed apart in the source
# mGluR5 [3] = target: T1, mGluR5 (Rattus norvegicus, UniProt P31424); assay: Calcium mobilization (intracellular calcium levels) in primary cultures of rat cortical astrocytes; type: cell-based; conditions: for EC50: GET73 0 (absence)
# Method: The experiments have been performed on primary cultures of rat cortical astrocytes. These cells express mGlu5Rs ([Zhang et al., 2005]).
# Primary cultures of cerebral cortical astrocytes were obtained from newborn rats (1 or 2 days old). Briefly, cerebral cortices were removed and dissociated by mild trypsinization at 37°C, followed by mechanical trituration to obtain single cells. Cells were suspended in the culture medium [Gibco® DMEM, 5% inactivated fetal bovine serum (Thermo-Fisher Scientific, Waltham, MA, United States), 100 IU/ml penicillin, and 100 μg/ml streptomycin (all from Sigma-Aldrich, Milan, Italy)] and then seeded in 75-cm^2 flasks at a density of 3 × 10^6 cells/flask. The cells were incubated at 37°C in a humidified atmosphere, 5% CO2/95% air. The culture medium was replaced after 24 h and again twice weekly until astrocytes were grown to form a monolayer firmly attached to the bottom of the flask (12 or 14 days after dissection). At cell confluence, flasks were vigorously shaken to separate astrocytes (which remained adherent in the bottom of the flasks) from microglia and oligodendrocytes (which floated on the supernatant) ([Tomasini et al., 2015]). Collected astrocytes were counted and then plated in poly-L-lysine at a density of 50,000 cells/well or 96-well plates black, clear bottom plates (Corning®; Sigma-Aldrich, Milan, Italy).
# Subsequently 100 μl/well of the same buffer were added for 10 min. […] After placing cell culture and compound plates into the FlexStation II (Molecular Devices, Sunnyvale, CA, United States), the on-line additions were carried out in a volume of 50 μl /well and fluorescence changes were continuously measured for 2 min at 37°C.
# (§1) EC50 values were calculated using non-linear regression [curve fit, log(agonist) vs. response, variable slope, four parameters]. Statistical analysis (F-test) has been performed by using GraphPad Prism 6.0 (GraphPad Software Inc., San Diego, CA, United States). Statistical differences between group means for EC50 values were also assessed by ANOVA followed by Tukey’s multiple comparisons test. Data are reported as mean ± SEM of three independent experiments. A p-value < 0.05 was considered statistically significant.
# mGluR5 [4] = target: T1, mGluR5; assay: pCREB (Ser133) levels in primary cultures of rat cortical neurons; type: cell-based; conditions: for EC50: rat cerebral cortex neurons
# Method: The experiments have been performed on primary cultures of rat cortical neurons. These cells express mGlu5Rs ([Koga et al., 2010]).
# Primary cultures of cerebral cortical neurons were prepared from 1-day-old rats. Cortices free of meninges were dissociated in 0.025% (w/v) trypsin at 37°C followed by mechanical repeated gentle pipetting through wide- and narrow-bore fire-polished Pasteur pipettes in culture medium [Neurobasal medium (Gibco, Grand Island, NY, United States) supplemented with 0.1 mM glutamine (Sigma-Aldrich, Milan, Italy), 10 μg/ml gentamicin (Sigma-Aldrich, Milan, Italy) and 2% B-27® Supplement (50X), serum free (Gibco, Grand Island, NY, United States)]. Cells were counted and then plated on poly-L-lysine (5 μg/ml)-coated multiwells. Cytosine arabinoside (10 μM; Sigma-Aldrich, Milan, Italy) was added within 24 h of plating to prevent glial cell proliferation. After 8 days of in vitro incubation (days in vitro: DIV), cultures were used for experiments.
# pCREB measurement was performed with the pCREB (Ser133) Assay kit (PerkinElmer Italy, Milan). Briefly, cortical neurons were seeded in 96 well tissue culture plates at a density of 4,000 cells/well and incubated at 37°C overnight. […] The lysates were transferred to a 96-well ½AreaPlate^TM for the assay. The Acceptor Mix was added for 1 h at room temperature and the Donor mix was added to wells under subdue light and incubate for 1 h at room temperature. At the end of this period, raw “AlphaScreen Signal counts” were measured by an Alpha Technology®-compatible plate reader, using standard AlphaLISA settings (excitation 680 nm, emission 615 nm).
# as §1
# mGluR5 [5] = target: T1, mGluR5; assay: Inositol phosphate (phosphatidylinositol) turnover in rat hippocampus slices; type: cell-based; conditions: for EC50 / Effect on L-quisqualate concentration-response curve, phosphatidylinositol turnover / Effect on CHPG (10 mM)-induced increase in phosphatidylinositol turnover / Effect on glutamate concentration-response curve, phosphatidylinositol turnover: rat hippocampus slices; for EC50: read-out: EC50 of L-quisqualate, phosphatidylinositol turnover
# Method: The experiments have been performed on rat hippocampus slices. This preparation expresses mGlu5Rs ([Zhang et al., 2005]; [Purgert et al., 2014]).
# On the day of the experiment, the animals were euthanized, their brain promptly isolated and 400 μm thick slices (15–20 mg each) were obtained from both the left and right hippocampi, by using a McIlwain tissue Chopper fresh tissue. The tissue was then allowed to equilibrate for 20 min at room temperature in Krebs’ solution (composition in mM: NaCl 118; KC1 4.4; CaC1_2 1.2; MgS0_4 1.2; KH2P0_4 1.2; NaHC0_3 25; glucose 10) and gassed with a mixture of 95% O2 plus 5% CO2 ([Ferraro et al., 2011]).
# Slices were placed in test tubes containing 0.3 ml of oxygenated Krebs solution with myo-[^3H]inositol 0.3 μM (NEN, Boston, MA, United States). […] The reaction was stopped by washing each slice in ice cold Krebs solution containing LiCl 10 mM and by plunging it in 0.94 ml of chloroform-methanol (1:2 v/v). After 10 min, 310 μl of chloroform and 310 μl of water were added and the tubes were shaken for 20 min. The separation of [^3H]inositol phosphates was performed by ion-exchange chromatography on AG 1-X8 resin, 200–400 mesh (Bio-Rad, Hercules, CA, United States), using different elution solutions. The collected IP3-containing fraction was mixed with Safety-Solve cocktail (RPI, Mount Prospect, IL, United States) and the radioactivity was measured by scintillation counting.
# as §1
# [6] = test system: dopamine, serotonin, GABA, ionotropic glutamate receptors, dopamine and serotonin reuptake systems; set-up: method as in Loche et al., 2012; conditions: ref Loche et al., 2012; cited from earlier work
# hippocampal neurons = test system: hippocampal neurons; set-up: method as in Tomasini et al., 2016; conditions: hippocampal neurons exposed to 0.1 to 10 μM; ref Tomasini et al., 2016; cited from earlier work
# alcohol intake = test system: alcohol intake; set-up: method as in Loche et al., 2012; Ferraro et al., 2013; conditions: preclinical studies; ref Loche et al., 2012; Ferraro et al., 2013; cited from earlier work
# [7] = ref Haass-Koffler et al., cited from earlier work
# mGluR5 [8] = target: T1, mGluR5; set-up: method as in Bradley et al., 2011; conditions: ref Bradley et al., 2011; cited from earlier work
# mGluR5 [9] = target: T1, mGluR5; set-up: method as in Bradley et al., 2011; conditions: ref Bradley et al., 2011; cited from earlier work; remark: listed apart in the source
# T1 sequence (P31424 21-875 limits assumed): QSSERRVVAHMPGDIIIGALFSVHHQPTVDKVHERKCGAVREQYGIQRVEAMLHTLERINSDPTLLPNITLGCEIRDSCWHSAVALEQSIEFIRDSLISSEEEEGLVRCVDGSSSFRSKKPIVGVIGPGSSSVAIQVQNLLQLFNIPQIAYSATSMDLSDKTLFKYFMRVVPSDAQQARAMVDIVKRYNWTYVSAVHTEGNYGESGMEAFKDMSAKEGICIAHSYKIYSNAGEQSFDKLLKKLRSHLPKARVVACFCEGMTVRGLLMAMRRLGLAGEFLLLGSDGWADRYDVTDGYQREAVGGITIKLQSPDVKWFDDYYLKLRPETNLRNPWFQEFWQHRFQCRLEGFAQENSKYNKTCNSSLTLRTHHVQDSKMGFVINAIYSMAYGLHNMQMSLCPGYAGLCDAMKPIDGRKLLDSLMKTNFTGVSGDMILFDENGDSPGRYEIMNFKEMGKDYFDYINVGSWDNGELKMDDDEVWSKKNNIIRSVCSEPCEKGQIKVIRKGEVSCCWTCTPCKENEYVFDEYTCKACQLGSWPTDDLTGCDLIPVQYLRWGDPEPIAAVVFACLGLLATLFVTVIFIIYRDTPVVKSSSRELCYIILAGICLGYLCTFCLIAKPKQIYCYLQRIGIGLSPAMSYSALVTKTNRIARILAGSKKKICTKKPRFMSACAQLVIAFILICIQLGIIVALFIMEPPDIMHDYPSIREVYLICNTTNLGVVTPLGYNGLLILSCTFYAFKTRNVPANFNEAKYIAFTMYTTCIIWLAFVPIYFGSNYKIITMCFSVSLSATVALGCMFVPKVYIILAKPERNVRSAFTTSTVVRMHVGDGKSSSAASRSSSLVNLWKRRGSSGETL
structure (smiles),measurement,setting,value
CCN(CC)C(=O)c1ccc(C#Cc2cccc(F)c2)cn1 [VU0477573],Inhibition of agonist-mediated intracellular Ca++ release,mGluR5 [1],only partially inhibited
same,Inhibition of ERK1/2 phosphorylation,mGluR5 [2],fully inhibited
"N[C@@H](Cn1oc(=O)[nH]c1=O)C(=O)O [L-quisqualate, (L)-(+)-α-Amino-3,5-dioxo-1,2,4-oxadiazolidine-2-propanoic acid]",EC50,"mGluR5 [3]; read-out: EC50 of L-quisqualate, intracellular calcium levels",0.0031 ± 0.00036 µM
same,EC50,"mGluR5 [4]; GET73 0 (absence), read-out: EC50 of L-quisqualate, pCREB levels",0.0088 ± 0.00068 µM
same,EC50,"mGluR5 [4]; in the presence of GET73 0.1 nM, read-out: EC50 of L-quisqualate, pCREB levels",0.009 ± 0.00091 µM
same,EC50,"mGluR5 [4]; in the presence of GET73 1 nM, read-out: EC50 of L-quisqualate, pCREB levels",0.0074 ± 0.00066 µM
same,EC50,"mGluR5 [4]; in the presence of GET73 10 nM, read-out: EC50 of L-quisqualate, pCREB levels",0.0085 ± 0.00052 µM
same,EC50,"mGluR5 [4]; in the presence of GET73 100 nM, read-out: EC50 of L-quisqualate, pCREB levels",0.011 ± 0.00096 µM
same,EC50,"mGluR5 [4]; in the presence of GET73 1 μM, read-out: EC50 of L-quisqualate, pCREB levels",0.022 ± 0.00172 µM
same,EC50,"mGluR5 [4]; in the presence of GET73 10 μM, read-out: EC50 of L-quisqualate, pCREB levels",0.016 ± 0.00044 µM
same,EC50,mGluR5 [5]; GET73 0 (absence),40 ± 2.37 µM
same,EC50,mGluR5 [5]; in the presence of GET73 0.1 nM,33 ± 1.57 µM
same,EC50,mGluR5 [5]; in the presence of GET73 1 nM,40 ± 1.44 µM
same,EC50,mGluR5 [5]; in the presence of GET73 10 nM,110 ± 9.5 µM
same,EC50,mGluR5 [5]; in the presence of GET73 100 nM,200 ± 11.1 µM
same,EC50,mGluR5 [5]; in the presence of GET73 1 μM,320 ± 15.7 µM
same,EC50,mGluR5 [5]; in the presence of GET73 10 μM,200 ± 12.6 µM
"NC(C(=O)O)c1cc(O)ccc1Cl (racemic) [CHPG, (RS)-2-Chloro-5-hydroxyphenylglycine]",EC50,"mGluR5 [3]; read-out: EC50 of CHPG, intracellular calcium levels",1300 ± 90 µM
same,EC50,"mGluR5 [4]; GET73 0 (absence), read-out: EC50 of CHPG, pCREB levels",1000 ± 90 µM
same,EC50,"mGluR5 [4]; in the presence of GET73 0.1 nM, read-out: EC50 of CHPG, pCREB levels",1000 ± 80 µM
same,EC50,"mGluR5 [4]; in the presence of GET73 1 nM, read-out: EC50 of CHPG, pCREB levels",900 ± 40 µM
same,EC50,"mGluR5 [4]; in the presence of GET73 10 nM, read-out: EC50 of CHPG, pCREB levels",1400 ± 120 µM
same,EC50,"mGluR5 [4]; in the presence of GET73 100 nM, read-out: EC50 of CHPG, pCREB levels",5000 ± 290 µM
same,Phosphatidylinositol turnover,"mGluR5 [5]; CHPG at the higher concentration tested (10 mM), rat hippocampal slices, p < 0.05",127 ± 4 % of basal levels
"COCCCC(=O)NCc1ccc(C(F)(F)F)cc1 [GET73, N-[4-(trifluoromethyl)benzyl]-4-methoxybutyramide]",Affinity for a series of biological targets,[6],did not show affinity
same,Neurotoxicity,hippocampal neurons,no signs of neurotoxicity
same,"Effect on CHPG concentration-response curve, intracellular calcium",mGluR5 [3]; GET73 0.1 nM–10 μM,significant rightward shift
same,"Effect on L-quisqualate concentration-response curve, intracellular calcium",mGluR5 [3]; GET73 0.1 nM–10 μM,failed to significantly modify
same,"Effect on glutamate concentration-response curve, intracellular calcium",mGluR5 [3]; GET73 10 nM–10 μM,significant rightward shift
same,"Effect on glutamate concentration-response curve, intracellular calcium",mGluR5 [3]; GET73 0.1 and 1 nM,ineffective
same,Agonistic effect on intracellular calcium levels (calcium transient),"mGluR5 [3]; GET73 alone, 0.1 nM–10 μM",ineffective
same,Alcohol intake,alcohol intake,reduce alcohol intake
same,"Effect on glutamate concentration-response curve, pCREB","mGluR5 [4]; GET73 10 nM–10 μM, rat cortical neurons",significant rightward shift
same,"Effect on CHPG concentration-response curve, pCREB","mGluR5 [4]; GET73 100 nM–10 μM, rat cortical neurons",significant rightward shift
same,"Effect on glutamate concentration-response curve, pCREB","mGluR5 [4]; GET73 0.1 and 1 nM, rat cortical neurons",ineffective
same,"Effect on CHPG concentration-response curve, pCREB","mGluR5 [4]; GET73 0.1–10 nM, rat cortical neurons",ineffective
same,"Effect on L-quisqualate concentration-response curve, pCREB","mGluR5 [4]; GET73 0.1–100 nM, rat cortical neurons",ineffective
same,"Effect on L-quisqualate concentration-response curve, pCREB","mGluR5 [4]; GET73 1 and 10 μM, rat cortical neurons",significant rightward shift
same,Agonistic effect on pCREB levels,"mGluR5 [4]; GET73 alone, 0.1 nM–10 μM, rat cortical neurons",ineffective
same,"Effect on L-quisqualate concentration-response curve, phosphatidylinositol turnover",mGluR5 [5]; GET73 10 nM–10 μM,significant rightward shift
same,Effect on CHPG (10 mM)-induced increase in phosphatidylinositol turnover,"mGluR5 [5]; GET73 100 nM, 1 μM and 10 μM",significant reduction
same,"Effect on glutamate concentration-response curve, phosphatidylinositol turnover",mGluR5 [5]; GET73 100 nM–10 μM,significant rightward shift
same,"Effect on L-quisqualate concentration-response curve, phosphatidylinositol turnover",mGluR5 [5]; GET73 0.1 and 1 nM,ineffective
same,"Effect on glutamate concentration-response curve, phosphatidylinositol turnover",mGluR5 [5]; GET73 0.1 and 1 nM,ineffective
same,Effect on CHPG (10 mM)-induced increase in phosphatidylinositol turnover,mGluR5 [5]; GET73 0.1–10 nM,ineffective
same,Agonistic effect on phosphatidylinositol turnover,"mGluR5 [5]; GET73 alone, 0.1 nM–100 μM, rat hippocampal slices",failed to modify
same,Safety and tolerability,"[7]; Phase 1 clinical studies, healthy volunteers and alcohol-dependent patients, 2017a,b",safe and well-tolerated
same,CNS side effects,"[7]; two Phase I clinical trials in healthy volunteers and ongoing Phase 1b/2a study in alcohol dependent subjects, 2017a",did not induce any CNS side effects
COc1cccc(C#Cc2ccc(C)cn2)c1 [M-5MPEP],Inhibition of agonist-stimulated [3H]IP accumulation,mGluR5 [8],partially inhibiting
same,Inhibition of agonist-stimulated Ca++ oscillations,mGluR5 [9],completely blocking
